Assay results from patent US8822519B2, “Compound with agitation effect on peroxisome proliferator-activated receptor process for its preparation and use thereof” (Zhejiang Hisun Pharmaceutical Co., Ltd., priority 2008, dated 2014).

Biological target: T1, PPARδ (Homo sapiens, UniProt Q03181)
T1 construct: expressed in transfected cells; host or cells: HepG2 (human hepatocarcinoma, ATCC)
T1 sequence (Q03181 1-441): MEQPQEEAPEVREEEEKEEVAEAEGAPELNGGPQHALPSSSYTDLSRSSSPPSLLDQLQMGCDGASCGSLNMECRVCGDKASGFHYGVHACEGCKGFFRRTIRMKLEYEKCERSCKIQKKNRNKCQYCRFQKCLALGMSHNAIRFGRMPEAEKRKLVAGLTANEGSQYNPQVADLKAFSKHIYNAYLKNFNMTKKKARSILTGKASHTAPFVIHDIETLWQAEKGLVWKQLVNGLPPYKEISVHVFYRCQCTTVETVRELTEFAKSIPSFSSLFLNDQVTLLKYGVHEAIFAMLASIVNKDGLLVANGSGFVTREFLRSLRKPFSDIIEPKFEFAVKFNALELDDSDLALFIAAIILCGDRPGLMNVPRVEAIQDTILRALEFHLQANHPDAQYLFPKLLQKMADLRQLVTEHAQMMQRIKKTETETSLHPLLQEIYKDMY
T1 sequence (P19793 1-462 partner): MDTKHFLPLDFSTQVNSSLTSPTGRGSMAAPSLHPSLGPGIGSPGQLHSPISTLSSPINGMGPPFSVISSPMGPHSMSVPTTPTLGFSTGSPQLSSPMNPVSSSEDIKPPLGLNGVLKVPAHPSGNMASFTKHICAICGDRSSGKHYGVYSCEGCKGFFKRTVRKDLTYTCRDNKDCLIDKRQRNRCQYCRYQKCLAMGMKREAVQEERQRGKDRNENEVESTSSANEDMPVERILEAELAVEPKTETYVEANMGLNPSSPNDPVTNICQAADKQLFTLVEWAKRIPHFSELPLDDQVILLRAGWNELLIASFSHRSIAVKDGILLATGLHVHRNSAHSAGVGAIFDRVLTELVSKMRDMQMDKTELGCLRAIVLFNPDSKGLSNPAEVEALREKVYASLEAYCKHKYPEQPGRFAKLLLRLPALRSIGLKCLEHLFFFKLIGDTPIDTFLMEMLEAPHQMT
Assay: In vitro screening of nuclear receptor agonist: luciferase reporter gene assay in HepG2 cells
Assay type: cell-based
Settings: RXR/PPARδ luciferase reporter gene, 24 h treatment
Source text: Using a reporter gene protocol, the screening model for screening a nuclear receptor agonist in a living cell is designed on a basis of the principal that an activated nuclear receptor can activate transcription of its downstream gene. A reporter gene plasmid is constructed, in which the DNA binding sequence for the nuclear receptor (NRE) is inserted upstream of the luciferase gene, so that the expression of the luciferase gene is placed under the control of the nuclear receptor. Then, the reporter gene plasmid and the nuclear receptor are simultaneously transferred into a cell, and the nuclear receptor is activated when the nuclear receptor agonist is present in the cell culture medium. Then the activated receptor is able to induce the expression of the luciferase gene, while the amount of the luciferase can be determined through its luminous substrate. In this way, the intensity of activation by the compound on the nuclear receptor could be known by observing the luminescence intensity.
The specific operation is described as follows:
The experiment reagents: the compounds to be tested (20 mM, in DMSO, stored at −80° C.).
The hepatocarcinoma cell HepG2 (from ATCC, American Type Culture Collection) was cultured in DMEM medium supplemented with 10% heat-inactivated fetal bovine serum (FBS, Invitogen, Grand Island, N.Y., USA) in a T-75 culture bottle (Greiner, Germany) in a incubator at 37° C., the relative humidity of 100%, and 5% CO2. When the cell culture in the culture bottle reached 80-90% confluency, it was digested with 0.25% Trypsin (with EDTA) for 3 min and inoculated into a 96-well cell culture plate at an inoculating density of 2000 cells/100 μl/well.
In the next day, when the cells in the 96-well culture plate grew up to 50-80% confluency, cell transfection was performed. The cell co-transfection system comprised the FuGene6 transfection agent (Roche Molecular Biochemicals, Indianapolis, Ind., U.S.A.) and 60 ng DNA (long of hRXR, 10 ng of pCMV βGal, 10 ng of the nuclear receptor expression plasmid RXR/PPARδ, 30 ng of GFP fluorescence reporter gene plasmid, respectively).
The cell culture medium was discarded immediately at 24 hours post-transfection and replaced by 200 μl of a fresh DMEM medium containing the medicament to be tested (with 10% FBS treated by activated carbon).
24 h after treatment with the medicament, the cells were lysed with a lysis solution (Cell Culture Lysis buffer, Promega) and centrifuged, and the supernatant was collected. The supernatant was treated with a fluorescence detection kit (Promega) and counted by a fluorescence meter (Ascent Fluoroskan FL reader, Thermo Labsystems, Finland), and the relative intensity of the luciferase was determined. For assaying the β-galactosidase activity used in the experiment as the inner reference (the inner reference calibrating for the transfection efficiency), 50 μl of the supernatant was transferred into a fresh microplate and treated with the Promega kit and read at a wavelength of 405 nm from a microplate reader (Bio-tech Instruments Inc., Winooski, Vt., USA) (Sauerberg, P.; Olsen, G. S.; Jeppesen, L.; Mogensen, J. P. et al., J. Med. Chem., 2007, 50, 1495-1503).
The median effective concentration (EC50) of a sample is a concentration at which the sample has 50% pharmacological effect. This value is one of the important parameters for evaluating pharmacological effects of a compound. In the present screening process, the EC50 of a sample was calculated according to the activation of the receptor by the sample at six different concentrations.

EC50 [nM] | Compound
100 | Cc1cc(OC(c2ccccc2)c2nn(-c3ccc(C(F)(F)F)cc3)c(=O)n2C)ccc1SCC(=O)O (centres unmarked) [Compound A-2, 2-(2-methyl-4-(1-(3-(4-methyl-5-oxo-1-(4-trifluoromethyl-phenyl)-4,5-dihydrogen-1H-1,2,4-triazolyl))-benzyloxy)-phenylthio)-acetic acid]
10 | Cc1cc(SC(c2ccccc2)c2nn(-c3ccc(C(F)(F)F)cc3)c(=O)n2C)ccc1OCC(=O)O (centres unmarked) [Compound A-4, 2-(2-methyl-4-(1-(3-(4-methyl-5-oxo-1-(4-trifluoromethyl-phenyl)-4,5-dihydrogen-1H-1,2,4-triazolyl))-benzylthio)-phenoxy)-acetic acid]
340 | CCc1cc(OC(c2ccccc2)c2nn(-c3ccc(C(F)(F)F)cc3)c(=O)n2C)ccc1OCC(=O)O (centres unmarked) [Compound A-5, 2-(2-ethyl-4-(1-(3-(4-methyl-5-oxo-1-(4-trifluoromethyl-phenyl)-4,5-dihydrogen-1H-1,2,4-triazolyl))-benzyloxy)-phenoxy)-acetic acid]
2090 | Cc1cc(OCC(=O)O)ccc1OC(c1ccccc1)c1nn(-c2ccc(C(F)(F)F)cc2)c(=O)n1C (centres unmarked) [Compound A-6, 2-(3-methyl-4-(1-(3-(4-methyl-5-oxo-1-(4-trifluoromethyl-phenyl)-4,5-dihydrogen-1H-1,2,4-triazolyl))-benzyloxy)-phenoxy)-acetic acid]
380 | Cc1cc(OCC(=O)O)ccc1SC(c1ccccc1)c1nn(-c2ccc(C(F)(F)F)cc2)c(=O)n1C (centres unmarked) [Compound A-7, 2-(3-methyl-4-(1-(3-(4-methyl-5-oxo-1-(4-trifluoromethyl-phenyl)-4,5-dihydrogen-1H-1,2,4-triazolyl))-benzylthio)-phenoxy)-acetic acid]
3020 | Cc1cc(SCc2nn(-c3ccc(C(F)(F)F)cc3)c(=O)n2C)ccc1OCC(=O)O [Compound A-8, 2-(2-methyl-4-(3-(4-methyl-5-oxo-1-(4-trifluoromethyl-phenyl)-4,5-dihydrogen-1H-1,2,4-triazolyl)-methylthio)-phenoxy)-acetic acid]
6610 | Cc1cc(OCc2nn(-c3ccc(C(F)(F)F)cc3)c(=O)n2C)ccc1OCC(=O)O [Compound A-9, 2-(2-methyl-4-(3-(4-methyl-5-oxo-1-(4-trifluoromethyl-phenyl)-4,5-dihydrogen-1H-1,2,4-triazolyl)-methoxy)-phenoxy)-acetic acid]
100 | Cc1cc(SC(c2ccccc2)c2nn(-c3ccc(C(F)(F)F)cc3)c(=O)n2C)c(C)cc1OCC(=O)O (centres unmarked) [Compound A-10, 2-(2,5-dimethyl-4-(1-(3-(4-methyl-5-oxo-1-(4-trifluoromethyl-phenyl)-4,5-dihydrogen-1H-1,2,4-triazolyl))-benzylthio)-phenoxy)-acetic acid]
650 | Cc1cc(SCC(=O)O)ccc1OCc1nn(-c2ccc(C(F)(F)F)cc2)c(=O)n1C [Compound A-12, 2-(3-methyl-4-(3-(4-methyl-5-oxo-1-(4-trifluoromethyl-phenyl)-4,5-dihydrogen-1H-1,2,4-triazolyl)-methoxy)-phenylthio)-acetic acid]
20 | Cc1cc(SC(c2ccccc2)c2nn(-c3ccc(C(F)(F)F)cc3)c(=O)n2C)ccc1OC(C)C(=O)O (centres unmarked) [Compound A-13, 2-methyl-2-(2-methyl-4-(1-(3-(4-methyl-5-oxo-1-(4-trifluoromethyl-phenyl)-4,5-dihydrogen-1H-1,2,4-triazolyl))-benzylthio)-phenoxy)-acetic acid]
< 1 | CCc1cc(SC(c2ccccc2)c2nn(-c3ccc(C(F)(F)F)cc3)c(=O)n2C)ccc1OCC(=O)O (centres unmarked) [Compound A-14, 2-(2-ethyl-4-(1-(3-(4-methyl-5-oxo-1-(4-trifluoromethyl-phenyl)-4,5-dihydrogen-1H-1,2,4-triazolyl))-benzylthio)-phenoxy)-acetic acid]
